{"source": "ChEMBL document CHEMBL5465560", "about": "“Selectivity Literature for EUbOPEN Chemogenomic Library” (2024)", "key": {"[1]": {"molecular_target": "Serine/threonine-protein kinase MARK1 (Homo sapiens) (UniProt Q9P0L2)", "sequence (Q9P0L2 whole entry, looked up)": "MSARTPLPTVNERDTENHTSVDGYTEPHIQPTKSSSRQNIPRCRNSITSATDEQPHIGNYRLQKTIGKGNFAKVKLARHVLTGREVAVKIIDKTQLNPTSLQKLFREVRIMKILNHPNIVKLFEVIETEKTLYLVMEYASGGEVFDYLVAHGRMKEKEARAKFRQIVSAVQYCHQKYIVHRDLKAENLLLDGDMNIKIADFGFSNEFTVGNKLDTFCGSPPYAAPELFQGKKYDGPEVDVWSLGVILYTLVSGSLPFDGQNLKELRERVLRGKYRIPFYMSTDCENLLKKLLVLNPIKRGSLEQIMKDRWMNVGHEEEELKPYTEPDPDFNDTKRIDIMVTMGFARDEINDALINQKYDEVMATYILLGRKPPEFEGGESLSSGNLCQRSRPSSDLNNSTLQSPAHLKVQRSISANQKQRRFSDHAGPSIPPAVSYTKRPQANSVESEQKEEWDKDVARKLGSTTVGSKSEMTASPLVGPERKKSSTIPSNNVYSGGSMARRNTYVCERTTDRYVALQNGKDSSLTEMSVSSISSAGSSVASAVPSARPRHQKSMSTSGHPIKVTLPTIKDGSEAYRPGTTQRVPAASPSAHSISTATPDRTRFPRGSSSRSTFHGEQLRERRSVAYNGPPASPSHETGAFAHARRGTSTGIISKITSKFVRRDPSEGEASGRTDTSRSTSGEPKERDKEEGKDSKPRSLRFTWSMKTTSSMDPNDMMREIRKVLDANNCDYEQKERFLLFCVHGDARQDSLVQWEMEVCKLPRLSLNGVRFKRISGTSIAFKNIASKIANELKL", "assay": "Selectivity interaction (ActivX KiNativ screen (kinase selectivity in THP-1 cell lysates)) EUB0000639a MARK1", "assay_type": "subcellular", "details": "lysate"}, "[2]": {"molecular_target": "Wee1-like protein kinase (Homo sapiens) (UniProt P30291)", "assay": "Selectivity interaction (Kinase panel (Invitrogen)) EUB0000639a WEE1", "details": "at 200 nM"}, "[3]": {"molecular_target": "Casein kinase II subunit alpha (Homo sapiens, UniProt P68400)", "sequence (P68400 whole entry, looked up)": "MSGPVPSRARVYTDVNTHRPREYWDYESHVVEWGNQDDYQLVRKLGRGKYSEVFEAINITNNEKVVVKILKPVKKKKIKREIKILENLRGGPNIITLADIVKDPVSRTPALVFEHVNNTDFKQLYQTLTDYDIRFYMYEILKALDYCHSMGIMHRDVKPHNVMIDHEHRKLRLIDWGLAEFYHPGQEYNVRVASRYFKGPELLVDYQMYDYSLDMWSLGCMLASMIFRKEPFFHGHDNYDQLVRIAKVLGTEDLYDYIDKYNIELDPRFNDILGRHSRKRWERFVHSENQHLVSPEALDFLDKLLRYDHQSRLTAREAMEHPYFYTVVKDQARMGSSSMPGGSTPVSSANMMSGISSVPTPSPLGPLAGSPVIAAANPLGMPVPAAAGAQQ", "assay": "Selectivity interaction (ActivX KiNativ screen (kinase selectivity in THP-1 cell lysates)) EUB0000639a CSNK2A1", "assay_type": "subcellular", "details": "lysate"}, "[4]": {"molecular_target": "Histone-lysine N-methyltransferase, H3 lysine-79 specific (Homo sapiens, UniProt Q8TEK3)", "sequence (Q8TEK3 whole entry, looked up)": "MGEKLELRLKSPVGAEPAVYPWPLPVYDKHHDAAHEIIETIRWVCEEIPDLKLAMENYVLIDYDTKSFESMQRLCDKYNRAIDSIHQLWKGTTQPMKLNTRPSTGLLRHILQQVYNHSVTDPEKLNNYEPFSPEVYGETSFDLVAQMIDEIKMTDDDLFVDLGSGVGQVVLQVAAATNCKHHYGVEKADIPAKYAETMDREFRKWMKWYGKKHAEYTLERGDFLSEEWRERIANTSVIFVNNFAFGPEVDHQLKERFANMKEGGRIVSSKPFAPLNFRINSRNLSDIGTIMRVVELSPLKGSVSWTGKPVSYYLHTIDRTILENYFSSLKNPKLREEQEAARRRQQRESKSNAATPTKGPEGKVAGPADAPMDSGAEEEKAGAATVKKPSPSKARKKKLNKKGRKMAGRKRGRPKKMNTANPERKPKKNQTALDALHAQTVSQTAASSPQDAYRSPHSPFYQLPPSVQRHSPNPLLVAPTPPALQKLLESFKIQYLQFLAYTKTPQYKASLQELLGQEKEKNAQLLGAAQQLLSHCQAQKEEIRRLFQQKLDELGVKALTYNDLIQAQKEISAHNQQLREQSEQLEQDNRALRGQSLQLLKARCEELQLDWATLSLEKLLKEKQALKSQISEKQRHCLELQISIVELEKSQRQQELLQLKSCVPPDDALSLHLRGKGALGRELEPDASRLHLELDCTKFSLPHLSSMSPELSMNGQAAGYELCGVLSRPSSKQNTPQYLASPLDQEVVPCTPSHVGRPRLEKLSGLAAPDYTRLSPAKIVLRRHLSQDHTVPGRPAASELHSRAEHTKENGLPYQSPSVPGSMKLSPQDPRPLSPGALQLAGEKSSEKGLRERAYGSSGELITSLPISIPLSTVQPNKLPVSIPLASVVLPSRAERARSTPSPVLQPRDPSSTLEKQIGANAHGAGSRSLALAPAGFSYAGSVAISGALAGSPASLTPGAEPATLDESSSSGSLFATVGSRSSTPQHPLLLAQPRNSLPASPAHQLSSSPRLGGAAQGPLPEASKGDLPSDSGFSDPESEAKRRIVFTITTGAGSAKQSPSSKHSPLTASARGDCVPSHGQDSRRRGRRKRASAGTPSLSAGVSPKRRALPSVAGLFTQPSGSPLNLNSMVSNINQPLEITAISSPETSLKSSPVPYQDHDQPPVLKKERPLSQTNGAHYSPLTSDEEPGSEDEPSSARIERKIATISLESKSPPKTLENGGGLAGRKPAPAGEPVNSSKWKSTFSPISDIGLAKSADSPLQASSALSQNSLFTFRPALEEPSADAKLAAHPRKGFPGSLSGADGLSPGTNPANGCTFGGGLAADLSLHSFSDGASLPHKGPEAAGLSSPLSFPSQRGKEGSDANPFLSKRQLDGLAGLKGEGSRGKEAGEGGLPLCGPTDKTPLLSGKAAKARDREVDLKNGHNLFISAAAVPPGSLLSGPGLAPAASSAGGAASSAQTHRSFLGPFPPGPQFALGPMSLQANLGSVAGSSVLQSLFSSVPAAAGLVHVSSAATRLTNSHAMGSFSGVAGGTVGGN", "assay": "Selectivity interaction (Transferase panel (protein, RNA, and DNA methyltransferases. and EP300 (acetyltransferase))) EUB0000270b DOT1L"}, "[5]": {"molecular_target": "T1, Interleukin-1 receptor-associated kinase 4 (Homo sapiens) (UniProt Q9NWZ3)", "T1 sequence (whole entry)": "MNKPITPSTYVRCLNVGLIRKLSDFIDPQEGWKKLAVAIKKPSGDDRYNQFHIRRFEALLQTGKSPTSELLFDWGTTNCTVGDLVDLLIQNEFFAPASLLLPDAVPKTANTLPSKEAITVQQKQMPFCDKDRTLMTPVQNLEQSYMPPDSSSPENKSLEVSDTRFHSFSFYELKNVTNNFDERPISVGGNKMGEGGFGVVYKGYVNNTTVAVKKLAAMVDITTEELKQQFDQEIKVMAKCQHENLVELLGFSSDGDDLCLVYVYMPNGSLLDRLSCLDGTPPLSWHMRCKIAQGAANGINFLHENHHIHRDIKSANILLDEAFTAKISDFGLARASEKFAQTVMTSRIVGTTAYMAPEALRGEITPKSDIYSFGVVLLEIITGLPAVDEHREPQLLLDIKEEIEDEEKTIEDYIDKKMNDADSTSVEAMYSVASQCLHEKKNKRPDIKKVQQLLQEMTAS", "assay": "Selectivity interaction (KinomeScan (DiscoverX)) EUB0001550a IRAK4", "details": "at 1 µM"}, "[6]": {"test_system": "T2, Discoidin domain-containing receptor 2 (Homo sapiens), Q16832 [N456S]", "T2 sequence (whole entry)": "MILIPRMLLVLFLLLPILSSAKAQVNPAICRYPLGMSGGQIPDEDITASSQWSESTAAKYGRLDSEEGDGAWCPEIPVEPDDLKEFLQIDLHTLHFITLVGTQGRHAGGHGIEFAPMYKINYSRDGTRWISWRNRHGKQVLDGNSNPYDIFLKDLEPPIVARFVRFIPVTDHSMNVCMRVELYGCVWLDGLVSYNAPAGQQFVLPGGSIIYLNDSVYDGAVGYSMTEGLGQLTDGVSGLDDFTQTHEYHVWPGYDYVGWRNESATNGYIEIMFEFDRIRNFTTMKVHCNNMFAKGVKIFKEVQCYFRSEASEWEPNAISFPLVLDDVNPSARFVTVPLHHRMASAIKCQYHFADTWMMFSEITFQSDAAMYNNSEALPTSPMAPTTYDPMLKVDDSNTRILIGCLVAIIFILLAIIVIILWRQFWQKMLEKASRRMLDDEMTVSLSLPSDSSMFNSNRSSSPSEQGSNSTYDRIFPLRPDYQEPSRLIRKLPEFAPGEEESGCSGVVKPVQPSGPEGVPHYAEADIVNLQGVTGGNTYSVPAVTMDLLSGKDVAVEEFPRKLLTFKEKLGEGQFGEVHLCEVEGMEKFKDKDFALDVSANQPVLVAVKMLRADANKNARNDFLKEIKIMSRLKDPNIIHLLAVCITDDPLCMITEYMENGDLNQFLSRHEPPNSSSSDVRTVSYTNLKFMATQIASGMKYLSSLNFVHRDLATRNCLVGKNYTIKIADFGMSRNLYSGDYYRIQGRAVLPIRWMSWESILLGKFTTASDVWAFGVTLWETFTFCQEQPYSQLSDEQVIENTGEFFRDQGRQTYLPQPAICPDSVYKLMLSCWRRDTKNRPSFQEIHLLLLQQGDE", "assay": "(§1) Selectivity interaction (LanthaScreen Eu Kinase Binding Assay) EUB0001632a DDR2", "details": "at 10 µM"}, "[7]": {"molecular_target": "T3, Discoidin domain-containing receptor 2 (Homo sapiens) (UniProt Q16832)", "T3 sequence (whole entry)": "T2 sequence (whole entry) with S456N", "assay": "as §1", "details": "at 10 µM"}, "[8]": {"molecular_target": "Fibroblast growth factor receptor 1 (Homo sapiens, UniProt P11362)", "sequence (P11362 22-822 limits assumed)": "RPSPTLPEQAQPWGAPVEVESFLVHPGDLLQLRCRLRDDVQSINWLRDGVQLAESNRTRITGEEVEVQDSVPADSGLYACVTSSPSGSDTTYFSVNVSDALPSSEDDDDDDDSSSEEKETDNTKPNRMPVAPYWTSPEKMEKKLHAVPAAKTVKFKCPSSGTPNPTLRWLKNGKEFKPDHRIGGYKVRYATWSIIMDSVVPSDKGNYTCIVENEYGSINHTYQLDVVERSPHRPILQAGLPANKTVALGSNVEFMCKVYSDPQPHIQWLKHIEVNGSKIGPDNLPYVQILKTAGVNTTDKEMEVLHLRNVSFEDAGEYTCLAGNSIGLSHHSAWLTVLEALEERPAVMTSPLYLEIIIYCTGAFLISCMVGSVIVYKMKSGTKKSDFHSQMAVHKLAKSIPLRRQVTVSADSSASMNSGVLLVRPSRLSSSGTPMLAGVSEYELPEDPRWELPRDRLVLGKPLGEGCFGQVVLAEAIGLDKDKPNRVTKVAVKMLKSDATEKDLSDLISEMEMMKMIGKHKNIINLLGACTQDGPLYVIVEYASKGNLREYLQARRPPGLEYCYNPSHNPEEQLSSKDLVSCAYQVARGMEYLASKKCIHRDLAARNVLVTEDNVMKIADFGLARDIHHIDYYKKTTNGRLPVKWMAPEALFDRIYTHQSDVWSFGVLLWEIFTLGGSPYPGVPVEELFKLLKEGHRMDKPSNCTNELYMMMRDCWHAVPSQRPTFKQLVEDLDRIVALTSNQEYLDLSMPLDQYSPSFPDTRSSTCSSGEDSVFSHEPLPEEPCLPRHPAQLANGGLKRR", "assay": "Selectivity interaction (KinomeScan (DiscoverX)) EUB0000695a FGFR1", "details": "at 100 nM"}, "[9]": {"test_system": "Epidermal growth factor receptor (Homo sapiens), P00533 [UNDEFINED MUTATION]", "sequence (P00533 whole entry, looked up, change not shown)": "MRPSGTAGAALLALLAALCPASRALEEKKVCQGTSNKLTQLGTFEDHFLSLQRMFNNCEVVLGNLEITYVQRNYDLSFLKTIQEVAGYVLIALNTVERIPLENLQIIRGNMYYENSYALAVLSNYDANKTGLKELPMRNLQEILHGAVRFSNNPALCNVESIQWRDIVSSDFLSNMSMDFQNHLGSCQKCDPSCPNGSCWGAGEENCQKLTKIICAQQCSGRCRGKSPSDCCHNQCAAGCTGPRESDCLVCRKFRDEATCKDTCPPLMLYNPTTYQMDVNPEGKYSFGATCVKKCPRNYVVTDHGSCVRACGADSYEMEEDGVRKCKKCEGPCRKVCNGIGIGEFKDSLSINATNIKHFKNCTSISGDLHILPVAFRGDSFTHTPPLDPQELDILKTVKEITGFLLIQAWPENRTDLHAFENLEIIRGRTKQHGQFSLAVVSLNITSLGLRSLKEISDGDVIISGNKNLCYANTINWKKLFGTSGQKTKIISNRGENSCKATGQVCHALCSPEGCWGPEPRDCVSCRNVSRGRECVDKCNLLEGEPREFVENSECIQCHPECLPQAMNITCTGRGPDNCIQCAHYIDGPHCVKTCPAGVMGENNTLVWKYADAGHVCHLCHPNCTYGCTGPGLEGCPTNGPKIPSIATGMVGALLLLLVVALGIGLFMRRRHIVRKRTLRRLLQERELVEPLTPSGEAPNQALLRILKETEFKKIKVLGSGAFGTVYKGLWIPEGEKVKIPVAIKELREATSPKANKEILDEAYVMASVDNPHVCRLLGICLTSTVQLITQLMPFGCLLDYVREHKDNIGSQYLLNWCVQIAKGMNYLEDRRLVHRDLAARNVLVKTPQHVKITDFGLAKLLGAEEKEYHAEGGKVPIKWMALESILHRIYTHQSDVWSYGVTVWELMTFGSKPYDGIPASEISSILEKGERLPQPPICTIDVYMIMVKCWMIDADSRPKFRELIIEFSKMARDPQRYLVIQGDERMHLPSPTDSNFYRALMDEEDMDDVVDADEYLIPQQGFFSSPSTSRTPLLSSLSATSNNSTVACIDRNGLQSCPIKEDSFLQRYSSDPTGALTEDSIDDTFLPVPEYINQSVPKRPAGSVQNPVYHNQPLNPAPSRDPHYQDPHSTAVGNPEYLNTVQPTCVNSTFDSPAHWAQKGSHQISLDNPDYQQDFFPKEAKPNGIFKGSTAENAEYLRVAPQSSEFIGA", "assay": "Selectivity interaction (KinomeScan (DiscoverX)) EUB0001619a EGFR", "details": "at 1 µM"}, "[10]": {"molecular_target": "Mitogen-activated protein kinase 3 (Homo sapiens, UniProt P27361)", "assay": "Selectivity interaction (KinomeScan (DiscoverX)) EUB0001619a MAPK3", "details": "at 1 µM"}, "[11]": {"molecular_target": "Transient receptor potential cation channel subfamily M member 6 (Homo sapiens) (UniProt Q9BX84)", "assay": "Selectivity interaction (KinomeScan (DiscoverX)) EUB0000666a TRPM6", "details": "at 10 µM"}}, "note": "Where a chain is given by its changes, count along the chain named."}
{"smiles": "CC[C@@H]1[C@H](F)C(=O)N[C@@H]1COc1nccc2cc(C(N)=O)c(OC)cc12", "note": "[ZIMLOVISERTIB]", "values": [{"measurement": "% of inhibition", "setting": "[1]; at 0.01 µM", "value": -5.4, "unit": "%"}, {"measurement": "% of inhibition", "setting": "[1]; at 0.04 µM", "value": 8.3, "unit": "%"}, {"measurement": "% of inhibition", "setting": "[1]; at 0.2 µM", "value": 8.4, "unit": "%"}, {"measurement": "% of inhibition", "setting": "[1]; at 1 µM", "value": 26.6, "unit": "%"}, {"measurement": "% of inhibition", "setting": "[1]; at 5 µM", "value": 51.5, "unit": "%"}, {"measurement": "% of inhibition", "setting": "[2]", "value": -0.606, "unit": "%"}, {"measurement": "% of inhibition", "setting": "[3]; at 1 µM", "value": 25.8, "unit": "%"}, {"measurement": "% of inhibition", "setting": "[3]; at 5 µM", "value": -6.9, "unit": "%"}]}
{"smiles": "Cc1cc(CN)cc(C)c1-c1ncn(C)c1-c1cncn1C", "values": [{"measurement": "% activity", "setting": "[4]; at 1 µM", "value": "> 90", "unit": "%"}, {"measurement": "% activity", "setting": "[4]; at 10 µM", "value": "> 80", "unit": "%"}]}
{"smiles": "CN(C)CC#Cc1ccc2[nH]c3c(c2c1)-c1nc(N)ncc1CCC3", "values": [{"measurement": "% of control", "setting": "[5]", "value": 21, "unit": "%"}]}
{"smiles": "Cn1cc(-n2cnc3c(NCc4nc5cc(Cl)c(Cl)cc5[nH]4)nc(N4CCOCC4)nc32)cn1", "values": [{"measurement": "% of inhibition", "setting": "[6]", "value": -20.1, "unit": "%"}, {"measurement": "% of inhibition", "setting": "[7]", "value": -2.81, "unit": "%"}]}
{"smiles": "Cc1cc(F)c(C(=O)Nc2cccc(-c3nncn3C(C)C)n2)cc1-n1cnc(C2CC2)c1", "values": [{"measurement": "% of control", "setting": "[8]", "value": 100, "unit": "%"}]}
{"smiles": "N#Cc1cccc(-c2c[nH]c3ncnc(N4CCOCC4)c23)c1", "values": [{"measurement": "% of control", "setting": "[9]", "value": 100, "unit": "%"}, {"measurement": "% of control", "setting": "[10]", "value": 87, "unit": "%"}]}
{"smiles": "O=C(NOC[C@H](O)CO)c1ccc(F)c(F)c1Nc1ccc(I)cc1F", "values": [{"measurement": "% of control", "setting": "[11]", "value": 100, "unit": "%"}]}
